This is an account of results in US20260185163A1, “MEN1 MUTATIONS AND USES THEREOF” (DANA-FARBER CANCER INSTITUTE, INC., priority 2022, published 2026).

The structures appear in SMILES notation. “Also recorded” adds a separate entry of the source.

Assay [1] relates to MOLM13 (MLL::AF9), MV4;11 (MLL::AF4) and OCI-AML3 (NPM1c) cells expressing MEN1-M327I, -G331R and -T349M. Kind of assay: dose-response assay after lentiviral expression of MEN1 mutants. The format is cell-based, human. As to conditions: viable cells after 10 days of drug treatment. The protocol: Cell lines were obtained from the “American Type Culture Collection” (ATCC) or the “Deutsche Sammlung von Mikroorganismen und Zellkulturen” (DSMZ) and cultured in RPMI-1640™ (for MOLM13, MV4;11 and OCI-AML3) or DMEM™ (for HEK-293T)+10% fetal bovine serum (FBS)+1% penicillin/streptomycin (P/S) (Life Technologies/Thermo Fisher Scientific) at 37° C., 5% CO2 atmosphere and 95% humidity. Cell lines were tested and maintained mycoplasma negative throughout all experiments. […]
To determine Menin-inhibitor responses of MOLM13, MV4;11 or OCI-AML3 cell lines expressing MEN1 mutants, 3×10^3 cells were plated per well in a non-tissue culture treated 96-well plate. […] After 6 days, cells were split 1:7 and counts of viable cells in each well were determined after 10 d of treatment by flow cytometry (LSRFortessa™ with High-throughput sampler (HTS), BD Biosciences). Relative cell counts were calculated as % of DMSO control. The average of each triplicate was calculated and the mean of all replicates was plotted. […]

For assay [2], the target named is T1, T349M-mutant Menin (Homo sapiens, UniProt O00255, T344M).
T1 construct: made in house; host or cells: E. coli BL21-DE3 Rosetta
T1 sequence (O00255 1-615 isoform O00255-1 T349M): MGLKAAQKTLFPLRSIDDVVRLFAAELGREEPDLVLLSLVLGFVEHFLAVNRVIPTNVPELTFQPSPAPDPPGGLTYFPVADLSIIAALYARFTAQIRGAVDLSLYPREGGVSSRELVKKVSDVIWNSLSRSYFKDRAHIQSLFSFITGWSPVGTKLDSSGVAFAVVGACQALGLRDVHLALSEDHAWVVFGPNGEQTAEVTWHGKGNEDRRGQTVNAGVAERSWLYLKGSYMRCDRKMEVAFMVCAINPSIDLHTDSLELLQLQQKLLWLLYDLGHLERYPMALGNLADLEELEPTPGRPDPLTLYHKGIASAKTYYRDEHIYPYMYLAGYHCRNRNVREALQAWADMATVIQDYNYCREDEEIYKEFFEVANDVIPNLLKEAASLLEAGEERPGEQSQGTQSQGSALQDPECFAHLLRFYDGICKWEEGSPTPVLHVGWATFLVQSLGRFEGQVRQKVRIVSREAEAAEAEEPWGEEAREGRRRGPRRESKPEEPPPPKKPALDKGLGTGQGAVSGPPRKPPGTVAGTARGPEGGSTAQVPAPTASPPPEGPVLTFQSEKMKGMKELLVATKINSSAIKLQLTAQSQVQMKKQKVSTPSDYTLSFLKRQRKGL
The experiment in a line: competitive MLL1 fluorescence polarization (FP) binding assay, displacement of MLL1 peptide. How it is done: The following peptides were synthesized by GenScript: N-terminal FITC-conjugated MLL14-43(C-A) peptide probe ([…]) with a C-A modification that improves binding to Menin^19, MLL14-43(C-A) ([…]) and MLL14-43(WT) ([…]). N-terminally FITC-labelled and unmodified MLL2 peptides (MLL2(15-48) […]) were synthesized at Genscript. To derive the FITC-MLL14-43(C-A) peptide Kd. FITC-conjugated MLL14-43(C-A) peptide probe at final concentration of 1 nM was mixed with increasing concentration of purified StrepII-Avi-TEV-Menin (5 μM final top concentration, 2-fold, 23-point dilution and a buffer control) in an assay buffer (50 mM Tris pH 7.5, 200 mM NaCl, 0.1% Pluronic F-68 solution (Sigma)) in 384-well microplates at 15 μL assay volume (Corning, 4514) and incubated for 30 min at room temperature (RT). For all assays change in fluorescence polarization was monitored using a PHERAstar FS microplate reader (BMG Labtech). The FITC-conjugated MLL14-43(C-A) peptide Kd was obtained from a fit in GraphPad Prism 9 using one site total model and averaged from three independent runs with three replicates (n=3, FIG. 8). In competitive titration experiments Menin proteins (1 nM WT, 1 nM M327I or 3 nM for T349M) and 1 nM FITC-conjugated MLL14-43(C-A) peptide probe were incubated in an assay buffer for 30 min. SNDX-5613 was then dispensed to 384-well microplate (Corning, 4514) containing 15 μL of the assay mix using D300e Digital Dispenser (HP) and normalized to 1% DMSO followed by 90 min incubation. The fluorescence polarization was monitored by PHERAstar FS microplate reader (BMG Labtech). The MLL14-43(WT) and MLL14-43(C-A) peptide titrations were performed by addition of 7.5 μL of 2-fold 23-point serial dilution into 7.5 μL of assay mix with the final concentrations of 1 nM FITC-conjugated MLL4-43 peptide probe, 1 nM WT Menin or 1 nM Menin M327I or 3 nM Menin T349M in assay buffer. The fluorescence polarization was monitored by PHERAstar FS microplate reader (BMG Labtech). For analysis of the competitive titration experiments the last 10 cycles of the data were averaged to obtain technical replicates. Data from three independent replicates (n=3) was plotted and IC50 values estimated using variable slope equation in GraphPad Prism 9. The calculation of Ki values was performed using Ki calculator available at websites.umich.edu/˜shaomengwanglab/software/calc_ki/index.html^23.

With `CNc1nc(NC2CCN(Cc3ccc4c(cc(C#N)n4CC45CC(NC=O)(C4)C5)c3C)CC2)c2cc(CC(F)(F)F)sc2n1` [MI-3454], the “drug sensitivity / resistance phenotype” value in assay [1] is reported as “resistance phenotype could similarly be observed”. In addition, the “effect of T349M on binding in the fluorescence polarization assay” value in assay [2] (T349M mutant Menin) is listed as “less affected”.
Regarding `CCN(C(=O)c1cc(F)ccc1Oc1cncnc1N1CC2(CCN(C[C@H]3CC[C@H](NS(=O)(=O)CC)CC3)CC2)C1)C(C)C` [SNDX-5613, revumenib], the “drug sensitivity / resistance phenotype” value in assay [1] is “robust decrease in SNDX-5613 sensitivity; also recorded: sufficient to establish resistance”. Moreover, the “increase of IC50-value for MLL-displacement compared to WT Menin” value in assay [2] (T349M mutant vs WT Menin) is recorded as 111 fold.
